“And” between values parts separate entries of the source, which are not always exact repeats. Equal values may be shown once.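 Results reflect a 48-hour exposure of cells in 96-well plates to compound at five concentrations. GI50 marks 50% less growth. TGI marks complete inhibition of growth.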
How the values were obtained:
Test in all cases: growth of human tumour cells (NCI), 48 h
RXF 393 renal = tested on: RXF 393 renal
HOP-92 NSCLC = tested on: HOP-92 NSCLC
SW-620 colon = tested on: SW-620 colon
BT-549 breast = tested on: BT-549 breast
MALME-3M melanoma = tested on: MALME-3M melanoma
NCI/ADR-RES ovarian = tested on: NCI/ADR-RES ovarian
NCI-H23 lung = tested on: NCI-H23 lung
SF-295 CNS = tested on: SF-295 CNS
SK-OV-3 ovarian = tested on: SK-OV-3 ovarian
OVCAR-5 ovarian = tested on: OVCAR-5 ovarian

SMILES	GI50 (RXF 393 renal)	TGI (RXF 393 renal)	GI50 (HOP-92 NSCLC)	TGI (HOP-92 NSCLC)	GI50 (SW-620 colon)	TGI (SW-620 colon)	GI50 (BT-549 breast)	TGI (BT-549 breast)	GI50 (MALME-3M melanoma)	TGI (MALME-3M melanoma)	GI50 (NCI/ADR-RES ovarian)	TGI (NCI/ADR-RES ovarian)	GI50 (NCI-H23 lung)	TGI (NCI-H23 lung)	GI50 (SF-295 CNS)	TGI (SF-295 CNS)	GI50 (SK-OV-3 ovarian)	TGI (SK-OV-3 ovarian)	GI50 (OVCAR-5 ovarian)	TGI (OVCAR-5 ovarian)
COc1ccc(C2=N[C@@H](c3ccc(Cl)cc3)[C@@H](c3ccc(Cl)cc3)N2C(=O)N2CCNC(=O)C2)c(OC(C)C)c1	12.3 µM and 12.7 µM and 13.9 µM	25.4 µM and 25.9 µM and 27.8 µM	14.9 µM and 10.7 µM	31.9 µM and 23.9 µM and 24.8 µM	17.1 µM and 18.2 µM and 16.7 µM	33.6 µM and 37.4 µM and 34 µM	12.6 µM and 14.9 µM and 15.4 µM	25.7 µM and 29.2 µM and 29.9 µM	11.2 µM and 2.56 µM and 1.15 µM	25.6 µM and 16.4 µM and 17.1 µM	16.9 µM and 16.7 µM and 16.2 µM	35 µM and 37.8 µM and 37.1 µM	16 µM and 15.8 µM and 16.4 µM	32.1 µM and 33.2 µM and 34.8 µM	12.6 µM and 12.9 µM and 14.9 µM	27.3 µM and 26.8 µM and 30.4 µM	16.8 µM and 15.9 µM and 15.4 µM	30.8 µM and 30.9 µM and 30.4 µM	17.1 µM and 16.3 µM and 17.3 µM	34 µM and 32.2 µM and 34.1 µM
CN1CCN(c2ccc3nc(-c4[nH]ncc4Nc4ncnc5c4OCCCN5)[nH]c3c2)CC1	< 0.01 µM		< 0.0107 µM	0.0429 µM	< 0.01 µM	0.112 µM	0.0108 µM	0.0384 µM	0.0185 µM	0.0633 µM	0.28 µM	2.89 µM	< 0.0109 µM	0.0726 µM	0.0162 µM	0.0769 µM	< 0.0108 µM	0.202 µM	0.0121 µM	0.163 µM
O=C(c1ccco1)c1nc2cc(C(F)(F)F)ccc2[n+]([O-])c1C(F)(F)F	61.4 µM	> 100 µM	36.7 µM	> 100 µM	37.5 µM	> 100 µM	63 µM	> 100 µM	33 µM	> 100 µM	32.4 µM	> 100 µM	35.6 µM	> 100 µM	51.3 µM	> 100 µM	> 100 µM	> 100 µM	31.5 µM	> 100 µM
CC[C@H]1CN(C)[C@H]2Cc3c([nH]c4ccccc34)C(=O)C[C@H]1C2C(=O)OC (stereo partly drawn)		> 100 µM		> 100 µM		> 100 µM		> 100 µM		> 100 µM		> 100 µM		> 100 µM		> 100 µM		> 100 µM		> 100 µM
Cc1ccc2nc3c(n2c1)C(=O)C(=O)c1ccccc1-3	0.227 µM	10.2 µM	0.71 µM	2.17 µM	0.198 µM	0.411 µM	0.168 µM	0.307 µM	0.157 µM	0.32 µM	0.348 µM	2.51 µM	0.217 µM	0.576 µM	0.287 µM	0.937 µM	1.01 µM	2.47 µM	0.202 µM	0.391 µM
c1ccc2cc(C[n+]3ccn(Cc4ccc5ccccc5n4)c3)ccc2c1		3.23 µM and 19.7 µM	0.184 µM and 1.66 µM		0.734 µM and 6.27 µM	11.8 µM and 22.1 µM	0.347 µM and 2.54 µM	1.51 µM and 8.46 µM	0.235 µM and 1.36 µM	0.811 µM and 6.35 µM	> 100 µM	> 100 µM	0.311 µM and 2.7 µM	3.23 µM and 14.6 µM	0.71 µM and 4.46 µM	4.98 µM and 18.7 µM	0.671 µM and 3.64 µM	4.3 µM and 17.7 µM	0.588 µM and 3.58 µM	9.52 µM and 16.7 µM
CCCCCCCCNC(C)C(O)c1ccc(SC(C)C)cc1 (stereo not drawn)	1.45 µM	2.81 µM	1.17 µM	2.53 µM	1.74 µM	3.29 µM	1.82 µM	3.33 µM	1.98 µM	3.81 µM	1.57 µM	3.17 µM	1.58 µM	3.13 µM	1.68 µM	3.2 µM	1.63 µM	2.98 µM	1.76 µM	3.23 µM
CC#CC#C/C=C1\C=CC2(OC=CC2OC(C)=O)O1 (stereo not drawn)		26.1 µM		51.6 µM and 44.1 µM		65.9 µM and 39.7 µM		> 100 µM		> 100 µM and 69.8 µM		> 100 µM		42.9 µM and 16.5 µM		> 100 µM		> 100 µM	30.6 µM and 9.87 µM	> 100 µM
O=C(Cc1ccc(Nc2ccnc(C(F)(F)F)c2)cc1)Nc1cc(Cl)ccc1O	25 µM	52.4 µM	1.96 µM	8.44 µM	6.23 µM	21.4 µM	4.07 µM	22.5 µM	3.83 µM	32.7 µM	3.46 µM	24.5 µM	2.86 µM	13.3 µM	3.06 µM	11.9 µM	15.8 µM	54.9 µM	17.8 µM	52.1 µM
COc1cc(-c2nc(-c3ccc(-c4nc5ccc(F)cc5[nH]4)cc3)no2)cc(OC)c1OC	1.9 µM	5.44 µM	1.76 µM	13.9 µM	3.61 µM	16.1 µM	3.49 µM	11.1 µM	2.32 µM	6.52 µM	2.49 µM	8.26 µM	2.5 µM	8.35 µM	2.31 µM	7.02 µM	4.12 µM	31.4 µM	5.59 µM	34.5 µM
Fc1cccc(Cl)c1Cn1c(-c2c(F)cccc2Cl)nc2ccccc21	19.7 µM	43.6 µM	13.9 µM	38.5 µM	16.8 µM	38 µM	25.4 µM	53.2 µM	8.29 µM	24.7 µM	18.7 µM	54.4 µM	31.2 µM	> 100 µM	16.8 µM	46.8 µM	18.4 µM	44.6 µM	24.9 µM	95.8 µM
